Reference: US20260109721A1, “IONIZABLE CATIONIC LIPIDS INCORPORATING SILICON: SYNTHESIS AND LNP FORMULATION” (priority 2023, published 2026)

Tests used:
[1] = LNP size, PDI and zeta potential by Dynamic Light Scattering (Method A); format: physicochemical; settings: LNP formulated with the lipid, DLS
Procedure: (§1) The synthesized lipids were tested in term of in vitro transfection efficacy and toxicity on HeLa cells. In order to perform the mentioned biological tests, appropriate LNPs had to be formulated from the synthesized lipids. The formulation technique was different in Method A and B. The particle size, polydispersity index (PDI) and zeta potential of resulting LNPs were determined by means of Dynamic Light Scattering technique (DLS). Prior to biological testing the encapsulation efficiency (EE) of the loaded LNPs was determined by using RiboGreen RNA assay. In case of Method A Luc mRNA while in case of Method B GFP mRNA was transfected into the cells. In parallel with the transfection experiments, toxicity of the investigated LNPs was determined, in case of Method A resazurin assay while in case of Method B MTT assay was used. Additionally, the toxicity of the lipids was investigated on HepG2 cells and IC50 values were determined.
• 1. If needed, prepare stock solutions by solving known amounts of lipid powder into an appropriate solvent. The recommended solvent is ethanol and the recommended concentration is typically in the range 10-50 mM. Higher concentrations are preferred to allow flexibility on mRNA-LNP concentration. • 2. Remove the lipid stock solutions from the −20° C. freezer. For long-term storage, −80° C. is used. • 3. Check the vials for precipitation, DOPE (CAS #4004-05-1) (20 mM) and DSPE-PEG (CAS #474922-26-4) (5 mM) may need a 5-30 minute incubation step at 37° C. with intermittent vortexing to resuspend all contents. […] As a last resort, lipids may be heated to 50° C. to resuspend, time should be kept as short as possible to prevent oxidation or other modifying or degradative processes. • 4. Mix the lipids by vortexing for 2 minutes. • 5. […] Cooling the solution prevent excessive evaporation of ethanol or similar solvents upon opening. • 6. Meanwhile, thaw the RNA samples, including the latest SecNLuc control, by inserting the frozen tube in a room temperature aluminium block. • 7. Prepare for each LNP-formulation with identical mRNA component, an RNA master mix according to Table 1 below in a fresh tube. Use of a master mix allows more precise comparison of lipid formulations relative to each other. Split the master mix over a number of fresh tubes equal to the number of samples+controls. Each tube contains 375 μl of mRNA in 10 mM Citrate pH 4.0. • 8. Prepare for each LNP formulation with identical lipid composition a Lipid master mix according to Table 1 below in a fresh tube, exclude the lipid of interest. Use of a master mix allows more precise comparison of the novel ionizable lipid relative to each other. Split the master mix over a number of fresh tubes equal to the number of samples+controls. Each tube contains 65.5 μl of lipid master mix. • 9. Add the ionizable lipid of interest to the equally divide lipid master mix. Mix well by pipetting up and down. Label the tube according to the ionizable lipid used. • 10. Power on the L1 FM (L1 Formulation Machine uses 2 high-speed syringe pumps to mix lipids in organic solvents with mRNA in acidic aquous solution to generate well-defined LNPs. The microfluidic mixing chip involves a dean-type structure performing the high-efficiency mixing at a total flow rate (TFR) of around 12 ml/min at a 3:1 mixing ratio) and allow it to do a calibration of motor positions.
• 18. Fill a fresh syringe (C) through a blunt 18G stainless steel needle with the previously prepared RNA mixture of step 6. The volume should be approximately 85% of total formulation volume+25 μl (dead-volume). Make sure to remove all air bubbles by tapping. • 19. Fill a fresh syringe (D) through a blunt 18G stainless steel needle with the Lipid master mix. The volume should be approximately […] of total formulation volume+25 μl (dead-volume). Again, Make sure to remove all bubbles. • 20. Attach the syringes in the correct orientation, syringe A on the left and syringe B on the right • 21.

[2] = Encapsulation efficiency of loaded LNPs, RiboGreen RNA assay (Method A); format: physicochemical; settings: encapsulation efficiency of mRNA-loaded LNP, Method A, RiboGreen
Procedure: as §1
• 1. Preparation of sample stock solutions: In the top row of the 96-well plate (Row A in the plate), add 297 μL of TE buffer pH 7.4 (see Table 1) to a single well for each sample plus a single well for a PBS blank using a multichannel pipette.
• 2. Add 3 μL of sample (at 0.5 mg/ml) to these wells for a final volume of 300 μL. Add 3 μL of PBS to the blank well. Pipette to mix. This is your stock solution for each sample. The final RNA concentration of these stock solutions should be approximately 4-7 μg/mL. • 3. mRNA-LNP sample setup: • a. Add 50 μL of TE buffer pH 7.5 to the two wells directly below each sample (Rows B and C in the plate). • b. Add 50 μL of sample stock solution from Row A into the wells in Rows B and C (this assay is run in duplicate. All liquid handling should be done using a multichannel pipette). • c. Add 50 μL of Triton buffer to the wells in Rows D and E (in the plate) below each sample. • d. Add 50 μL of sample stock solution from Row A into the wells in Rows D and E. • 4. RiboGreen RNA standard curve setup: Dilute the RNA standard to produce an RNA stock at a final concentration of 20 μg/mL in TE buffer pH 7.4. The final volume should be 150 μL. Set up a standard curve (in duplicate) as using the RNA stock (20 μg/mL siRNA), TE buffer pH 7.5, and Triton X-100 buffer according the Table 2 and Table 3 below.
• 5. Once samples and standard curve are plated, incubate the plate at 37° C. for 10 min to lyse mRNA-LNP in the presence of Triton X-100 buffer. • 6. Meanwhile, prepare RiboGreen Solution: Sum the total number of sample wells and standard curve wells. Add three to this number, and multiply the total by 100. This is the total volume, in μL, of RiboGreen Solution needed for this assay. In a 15 mL RNAse-free Falcon tube, dilute the RiboGreen Reagent 1:100 into TE buffer pH 7.5 to the total volume calculated. • 7. Addition of RiboGreen Solution and sample readings: Remove a 96-well plate from 37° C. incubator; let it cool to room temperature as RiboGreen binding is somewhat temperature dependent. Add 100 μL of RiboGreen Solution to each well. Pop any air bubbles with a needle. Read using fluorescent plate reader (excitation=480, emission=525). • 8. Sample analysis: Use the data generated by the RiboGreen standard curve to calculate the concentration of mRNA. Transfection Efficiency with Luciferase-mRNA (Method A)

Structure (SMILES) | PDI [1] | Size (nm) [1] [nm] | Zeta potential (mV) [1] [mV] | EE (%) [2] [%]
CCCCCCCC/C=C\CCCCCCCCOC(CC[C@@H](C)C1CCC2C3CCC4C[C@H](OC)CC[C@]4(C)C3CC[C@@]21C)O[Si](C)(C)OCCCCCCN(CCO)CCO (stereo partly drawn) [Example 51, (Z)-3-(2-hydroxyethyl)-13-((3R)-3-((3R,10S,13R)-3-methoxy-10,13-dimethylhexadecahydro-1H-cyclopenta[a]phenanthren-17-yl)butyl)-11,11-dimethyl-10,12,14-trioxa-3-aza-11-siladotriacont-23-en-1-ol] | 0.060 | 135.6 | −8.124 | 89
CCCCC/C=C\C/C=C\CCCCCCCCOC(CC[C@@H](C)C1CCC2C3CCC4C[C@H](OC)CC[C@]4(C)C3CC[C@@]21C)O[Si](C)(C)OCCCCCCN(CCO)CCO (stereo partly drawn) [Example 52, (23Z,26Z)-3-(2-hydroxyethyl)-13-((3R)-3-((3R,10S,13R)-3-methoxy-10,13-dimethylhexadecahydro-1H-cyclopenta[a]phenanthren-17-yl)butyl)-11,11-dimethyl-10,12,14-trioxa-3-aza-11-siladotriaconta-23,26-dien-1-ol] | 0.005 | 137.6 | −9.231 | 86
CCCCC/C=C\C/C=C\CCCCCCCCOC(CCCCCCC/C=C\C/C=C\CCCCC)O[Si](C)(C)OCCCCCCN1CCOCC1 (stereo not drawn) [Example 55, 4-((20Z,23Z)-10-((8Z,11Z)-heptadeca-8,11-dien-1-yl)-8,8-dimethyl-7,9,11-trioxa-8-silanonacosa-20,23-dien-1-yl)morpholine] | 0.441 | 319.9 | −10.81 | 21
CCCCC/C=C\C/C=C\CCCCCCCCOC(CCCCCCC/C=C\C/C=C\CCCCC)O[Si](C)(C)OCCCCCCN(C)CCO (stereo not drawn) [Example 56, (23Z,26Z)-13-((8Z,11Z)-heptadeca-8,11-dien-1-yl)-3,11,11-trimethyl-10,12,14-trioxa-3-aza-11-siladotriaconta-23,26-dien-1-ol] | 0.057 | 149.5 | −10.08 | 85
CCCCC/C=C\C/C=C\CCCCCCCCOC(CCCCCCC/C=C\C/C=C\CCCCC)O[Si](C)(C)OCCCCCCN1CCCCC1 (stereo not drawn) [Example 57, 1-((20Z,23Z)-10-((8Z,11Z)-heptadeca-8,11-dien-1-yl)-8,8-dimethyl-7,9,11-trioxa-8-silanonacosa-20,23-dien-1-yl)piperidine] | 0.041 | 160.3 | −11.06 | 87
CCCCC/C=C\C/C=C\CCCCCCCCOC(CCCCCCC/C=C\C/C=C\CCCCC)O[Si](C)(C)OCCCCCCN1CCN(CCO)CC1 (stereo not drawn) [Example 58, 2-(4-((20Z,23Z)-10-((8Z,11Z)-heptadeca-8,11-dien-1-yl)-8,8-dimethyl-7,9,11-trioxa-8-silanonacosa-20,23-dien-1-yl)piperazin-1-yl)ethan-1-ol] | 0.011 | 160.6 | −11.86 | 86
CCCCC/C=C\C/C=C\CCCCCCCCOC(CCCCCCC/C=C\C/C=C\CCCCC)O[Si](C)(C)OCCCCCCN(C)CC(O)CO (stereo not drawn) [Example 59, (24Z,27Z)-14-((8Z,11Z)-heptadeca-8,11-dien-1-yl)-4,12,12-trimethyl-11,13,15-trioxa-4-aza-12-silatritriaconta-24,27-diene-1,2-diol] | 0.105 | 112.8 | −8.941 | 88
CCCCC/C=C\C/C=C\CCCCCCCCOC(CCCCCCC/C=C\C/C=C\CCCCC)O[Si](C)(C)OCCCCCCN(C)CCCCO (stereo not drawn) [Example 60, (25Z,28Z)-15-((8Z,11Z)-heptadeca-8,11-dien-1-yl)-5,13,13-trimethyl-12,14,16-trioxa-5-aza-13-silatetratriaconta-25,28-dien-1-ol] | 0.041 | 201.0 | −7.785 | 84
CCCCC/C=C\C/C=C\CCCCCCCCOC(CCCCCCC/C=C\C/C=C\CCCCC)O[Si](C)(C)OCCCCCCN(CCCCO)CCCCO (stereo not drawn) [Example 62, (25Z,28Z)-15-((8Z,11Z)-heptadeca-8,11-dien-1-yl)-5-(4-hydroxybutyl)-13,13-dimethyl-12,14,16-trioxa-5-aza-13-silatetratriaconta-25,28-dien-1-ol] | 0.13 | 236.8 | −10.74 | 84
CCCCC/C=C\C/C=C\CCCCCCCCOC(CCCCCCC/C=C\C/C=C\CCCCC)O[Si](C)(C)OCCCCCCN1CCCCC1CO (stereo not drawn) [Example 64, (1-((20Z,23Z)-10-((8Z,11Z)-heptadeca-8,11-dien-1-yl)-8,8-dimethyl-7,9,11-trioxa-8-silanonacosa-20,23-dien-1-yl)piperidin-2-yl)methanol] | 0.098 | 293.7 | −9.226 | 85
CCCCC/C=C\C/C=C\CCCCCCCCOC(CCCCCN(C)CC(O)CO)O[Si](C)(C)OCCCCCCCC/C=C\C/C=C\CCCCC (stereo not drawn) [Example 66, (22Z,25Z)-4,12,12-trimethyl-10-(((9Z,12Z)-octadeca-9,12-dien-1-yl)oxy)-11,13-dioxa-4-aza-12-silahentriaconta-22,25-diene-1,2-diol] | 0.043 | 223.6 | −11.66 | 82
C#CCN(C)CCCCCCO[Si](C)(C)OC(CCCCCCC/C=C\C/C=C\CCCCC)OCCCCCCCC/C=C\C/C=C\CCCCC (stereo not drawn) [Example 67, (20Z,23Z)-10-((8Z,11Z)-heptadeca-8,11-dien-1-yl)-N,8,8-trimethyl-N-(prop-2-yn-1-yl)-7,9,11-trioxa-8-silanonacosa-20,23-dien-1-amine] | 0.058 | 127.2 | −8.62 | 88
